Data on two molecules can be found in patent US20210222225A1, “Medium for Disk Diffusion Method to Evaluate Antibiotic Sensitivity” (priority 2018, published 2021).

Counter-ions that a name gives are not always drawn.

The test system of experiment [1] is ABA, KPN and PAE strains. The experiment in a line: Growth of strain on guanidine hydrochloride-containing medium. As to conditions: guanidine hydrochloride 5 to 50 μg/ml; agar 5.1 g/L. The format is cell-based.
Description: A concentration of agar particles (BD Diagnostic, Sparks, Md., USA) in Mueller-Hinton broth medium (BD Diagnostic) was adjusted to 5.1 g/L, which is 30% of 17 g/L, and guanidine hydrochloride was added to a concentration of 500 μg/ml, 50 μg/ml, or 5 μg/ml. Then, solidification was performed. On a surface of each medium thus prepared was evenly inoculated each of colistin-susceptible (S) or -resistant (R) Acinetobacter baumannii (ABA) strain, colistin-susceptible (S) or -resistant (R) Klebsiella pnemoniae (KPN) strain, and colistin-susceptible (S) or -resistant (R) Pseudomonas aeruginosa (PAE) strain, and a colistin disk was placed thereon.
Experiment [2] concerns Colistin-resistant Acinetobacter. The experiment in a line: Growth of strain on protamine-containing medium, ACB-R. The class given is cell-based, Acinetobacter calcoaceticus-baumannii complex. The protocol: (§1) As in Example 1, a concentration of agar particles (BD Diagnostic, Sparks, Md., USA) in Mueller-Hinton broth medium (BD Diagnostic) was adjusted to 17 g/L or 5.1 g/L that is 30% of 17 g/L. To select a concentration of protamine, which can enhance diffusion of colistin from a disk without interfering with bacterial growth, while using the protamine at various concentrations, protamine (Sigma-Aldrich, St Louis, Mo., USA) was added to the medium at concentrations of 1 mg/ml, 700 μg/ml, 400 μg/ml, 300 μg/ml, 200 μg/ml, 150 μg/ml, 100 μg/ml, and 50 μg/ml. Each medium thus modified was solidified. Then, on a surface of each medium was evenly inoculated each of colistin-susceptible (S) or -resistant (R) Acinetobacter calcoaceticus-baumannii complex (ACB) strain, Pseudomonas aeruginosa ATCC27853 strain, and mcr-1-harboring Enterobacter aerogenes strain, and a colistin disk was placed thereon. Then, it was determined whether each strain was grown, and a diameter of a growth inhibition zone, which had been formed around the disk, was measured.

For experiment [3], the system named is Colistin-susceptible Acinetobacter. The experiment in a line: Growth of strain on protamine-containing medium, ACB-S. The class given is cell-based, Acinetobacter calcoaceticus-baumannii complex. As for the experimental part:
as §1

For experiment [4], the system named is PAE ATCC 27853. The experiment in a line: Growth of strain on protamine-containing medium, PAE. The class given is cell-based, Pseudomonas aeruginosa. As for the experimental part:
as §1

For experiment [5], the system named is mcr-1-harboring Enterobacter aerogenes strain. As to the kind of experiment: Growth of strain on protamine-containing medium, mcr-1. The format is cell-based. As for the experimental part: as §1

In the case of `N=C(N)N` [guanidine hydrochloride], the “growth of the strain” value in experiment [1] is given as “not inhibited”.

On to protamine, for which the Growth result is reported as “Grown” in experiment [2] (30% agar, protamine 50 μg/ml); “Grown” in experiment [2] (30% agar, protamine 100 μg/ml); “Grown” in experiment [2] (30% agar, protamine 150 μg/ml); “Grown” in experiment [2] (100% agar, protamine 50 μg/ml); “Grown” in experiment [2] (100% agar, protamine 100 μg/ml); “Grown” in experiment [2] (100% agar, protamine 150 μg/ml). In addition, the Growth result in experiment [2] (100% agar, protamine 200 μg/ml) was “Grown”; in experiment [2] (100% agar, protamine 300 μg/ml) it was “Grown”; in experiment [2] (100% agar, protamine 400 μg/ml), “Grown”; in experiment [3] (30% agar, protamine 50 μg/ml), “Grown”; in experiment [3] (30% agar, protamine 100 μg/ml), “Grown”; in experiment [3] (30% agar, protamine 150 μg/ml) it was “Grown”. The Growth result was “Grown” in experiment [3] (100% agar, protamine 50 μg/ml); “Grown” in experiment [3] (100% agar, protamine 100 μg/ml); “Grown” in experiment [3] (100% agar, protamine 150 μg/ml); “Grown” in experiment [3] (100% agar, protamine 200 μg/ml); “Grown” in experiment [3] (100% agar, protamine 300 μg/ml); “Grown” in experiment [3] (100% agar, protamine 400 μg/ml). Also, the Growth entry in experiment [3] (100% agar, protamine 700 μg/ml) was “Grown”; in experiment [4] (30% agar, protamine 50 μg/ml) it was “Grown”; in experiment [4] (30% agar, protamine 100 μg/ml), “Grown”; in experiment [4] (30% agar, protamine 150 μg/ml) it was “Grown”; in experiment [4] (30% agar, protamine 200 μg/ml) it was “Grown”; in experiment [4] (100% agar, protamine 50 μg/ml), “Grown”. Moreover, the Growth entry was “Grown” in experiment [4] (100% agar, protamine 100 μg/ml); “Grown” in experiment [4] (100% agar, protamine 150 μg/ml); “Grown” in experiment [4] (100% agar, protamine 200 μg/ml); “Grown” in experiment [4] (100% agar, protamine 300 μg/ml); “Grown” in experiment [4] (100% agar, protamine 400 μg/ml); “Grown” in experiment [5] (30% agar, protamine 50 μg/ml). In addition, the Growth result is “Grown” in experiment [5] (30% agar, protamine 100 μg/ml); “Grown” in experiment [5] (30% agar, protamine 150 μg/ml); “Grown” in experiment [5] (30% agar, protamine 200 μg/ml); “Grown” in experiment [5] (100% agar, protamine 50 μg/ml); “Grown” in experiment [5] (100% agar, protamine 100 μg/ml); “Grown” in experiment [5] (100% agar, protamine 150 μg/ml). Besides, the Growth result in experiment [5] (100% agar, protamine 200 μg/ml) is reported as “Grown”; in experiment [5] (100% agar, protamine 300 μg/ml), “Grown”; in experiment [5] (100% agar, protamine 400 μg/ml) it was “Grown”; in experiment [5] (100% agar, protamine 700 μg/ml), “Grown”.
